Data on five compounds can be found in article PMC4525181, “Structural and dynamic insights into the energetics of activation loop rearrangement in FGFR1 kinase” (Nature Communications, 2015).

The term kon denotes a measure of how fast the partners come together. What is called koff is the rate constant with which the complex falls apart.

“And” between values parts separate entries of the source, which are not always exact repeats. Equal entries are not always repeated. Where two headings read alike, the source gives them in different places.

One data set concerns N550K mutation in FGFR2. The note with it: N550K mutant relative to wild-type, BaF3 cells; cited from earlier work.
Data set [1] has as its target T1, FGFR1 kinase domain (Homo sapiens, UniProt P11362, C488A/C584S).
T1 construct: Human FGFR1 consisting of residues Ala458-Glu765; made in house; host or cells: Escherichia coli, co-expressed with PTP1B
Briefly: SPR kinetic analysis of inhibitors binding to FGFR1 kinase domain. The procedure: The hexa-histidine tag was cleaved from protein by overnight treatment with TEV protease and concomitant dialysis, immediately after the IMAC step. Purified protein in a buffer comprising 20 mM Tris-HCl, pH 8.0, 20 mM NaCl, 2 mM TCEP, was snap frozen in liquid nitrogen and stored at −80 °C. For NMR studies, an additional mutation (Asp623Ala) was introduced to improve the yield of stable isotope-labelled FGFR1 kinase protein[22]. Uniform isotopic labelling was achieved by growing E. coli BL21 (DE3) Star cells in D2O-based M9 minimal medium supplemented with ^15NH4Cl (Cambridge Isotope Laboratories or Sigma Aldrich) together with U-[^1H,^13C]- or (for fully deuterated samples) U-[^2H,^13C]-glucose (Cambridge Isotope Laboratories or Sigma Aldrich) as sole nitrogen and carbon sources, respectively. Purification was by IMAC and ion exchange chromatography; the 6 × His tag was not cleaved from the protein used for NMR. Human Abl consisting of residues Ser248-Val534 with an engineered TEV-cleavable N-terminal 6 × His tag and mutation Asn355Ser was expressed and purified as described[50] with minor modifications. For biophysical studies, the 6 × His tag was retained intact for both kinases as it was used for immobilization on a nitrilotriacetic acid (NTA) sensor chip.
Non-phosphorylated, histidine-tagged FGFR1 and non-phosphorylated, histidine-tagged Abl were immobilized as the ligand onto NTA sensor chips using a capture coupling method. The NTA surface was first activated with 500 μM NiSO4 in immobilization buffer. The carboxymethyl dextran surface was then activated with a 1:1 ratio of 0.4 M EDC and 0.1 M NHS. Hexa-histidine-tagged protein was diluted into immobilization buffer to a concentration of 30 μg ml^−1, and immobilized onto the surface with a 7-min injection. Remaining activated groups were blocked with 0.1 M Tris, pH 8.0. […] PBS, pH 7.4, 50 μM EDTA and 0.05% Surfactant P20 (v/v) (for Abl supplemented with 10% glycerol (v/v)) were used as immobilization buffer. […] SPR experiments were performed using the Biacore 3000, Biacore S51 and Biacore T200 biosensors (GE Healthcare), with NTA and series S NTA sensor chips (GE Healthcare). All FGFR1 binding experiments were done using PBS (pH range 7.0–7.4), 50 μM EDTA, 0.05% Surfactant P20 (v/v) and 1% DMSO (v/v) or 50 mM Bis-Tris (pH range 5.5–6.5), 100 mM NaCl, 50 μM EDTA, 0.05% Surfactant P20 (v/v) and 1% DMSO (v/v), as running buffer. All Abl binding experiments were conducted using PBS, pH 7.4, 50 μM EDTA, 0.05% Surfactant P20 (v/v), 10% glycerol (v/v) and 1% DMSO (v/v) as running buffer. […] Finally, they were diluted 1:100 (v/v) in running buffer without DMSO to achieve the target concentration resulting in a final DMSO concentration of 1% (v/v).
The highest compound concentration varied, but for all analytes five sequential injections with constant injection time and a constant dilution factor were done. All analyte concentrations were injected in one cycle, one after the other for 120 s with a short dissociation phase in between injections (∼60 s) and with a longer dissociation phase at the end of the cycle (1,000 to 20,000 s that varied depending on the expected dissociation rate constant of the analyte). Zero-buffer blank injections were included for referencing. Biacore T200 evaluation software and BIAevaluation 4.1 software, respectively, were used for processing and analysing data. Rate constants were calculated globally from the obtained sensorgram data by fitting to a 1:1 interaction model. Representative sensorgrams are shown in Supplementary Fig. 6. Multi-cycle kinetic analysis was carried out as previously described. Binding affinities (KD) were calculated from the equation KD=koff/kon.
In general terms: SPR reads the build-up and loss of mass on a sensor chip optically.

For data set [2], the target named is T1, FGFR1 kinase domain. Briefly: Isothermal titration calorimetry (ITC) of inhibitors binding to FGFR1. The note with it: for heat capacity change ΔCp: ITC titrations at 10-35 °C, slope of ΔH vs T; for -TΔS (ITC) / N (ITC stoichiometry) / ΔG (ITC) / ΔH (ITC): 298.15 K. The procedure: ITC experiments were carried out using an ITC200 instrument (Microcal Inc., GE Healthcare)[59]. Final ligand concentrations were achieved by diluting ligand stock solutions in DMSO 1:50 (v/v) in the experimental buffer, resulting in a final DMSO concentration of 2% (v/v). Protein concentration was determined by measuring the absorbance at 280 nm. DMSO concentration in the protein solution was adjusted to 2% (v/v). ITC measurements were routinely performed at 25 °C in 20 mM Tris, pH 7.8, 20 mM NaCl, 2 mM TCEP and 2% DMSO (v/v). The titrations were performed on 10−20 μM FGFR1 in the 200 μl sample cell using 2 μl injections of 0.1−0.2 mM ligand solution every 120 s. To correct for heats of dilution and mixing, the final baseline consisting of small peaks of identical size at the end of the experiment was subtracted. Representative ITC titrations are shown in Supplementary Fig. 2. To determine the heat capacity ΔCp of ligands binding to FGFR1, ITC titrations were performed as described above at 10, 15, 20, 25, 30 and 35 °C. Binding enthalpies derived from ITC experiments were plotted as ΔH against T and ΔCp are given by the slope of the linear regression analysis according to equation (3) (Supplementary Fig. 7): […]
(In ITC the heat of successive injections is recorded.)

Data set [3] has as its target T1, FGFR1 kinase domain. Briefly: SPR thermodynamic analysis (non-linear van't Hoff). Format: binding. The note with it: T0=298 K, SPR temperature dependence. The procedure:
(§1) Binding affinities (KD) were therefore determined from dosage experiments and binding responses at equilibrium were fit to a 1:1 steady-state affinity model available within the Scrubber 2 software (BioLogic Software Ltd., Campbell, Australia).
(§2) Transition state thermodynamic quantities were determined from the kinetic association (kon) and dissociation (koff) rate constants as previously described[64] by plotting ln (kh/kBT) versus 1/T according to the linear Eyring equation (2).

Data set [4] addresses T1, FGFR1 kinase domain. Briefly: Transition state thermodynamics from linear Eyring plots (SPR rate constants vs temperature). Format: binding. The note with it: Eyring analysis. The procedure:
as §1, §2
Here k is either the association rate constant (kon) or the dissociation rate constant (koff). ΔH and ΔS are the changes in […] enthalpy and entropy of binding, respectively, while the superscript ‘*' denotes that these refer to a transition state.

For the next data set, the target named is T2, FGFR1 Asp623Ala mutant (Homo sapiens, UniProt P11362, C488A/C584S/D623A).
T2 construct: a construct spanning residues Ala458 to Glu765 of human FGFR1; made in house; host or cells: Escherichia coli
T2 sequence (P11362 458-765 C488A/C584S/D623A): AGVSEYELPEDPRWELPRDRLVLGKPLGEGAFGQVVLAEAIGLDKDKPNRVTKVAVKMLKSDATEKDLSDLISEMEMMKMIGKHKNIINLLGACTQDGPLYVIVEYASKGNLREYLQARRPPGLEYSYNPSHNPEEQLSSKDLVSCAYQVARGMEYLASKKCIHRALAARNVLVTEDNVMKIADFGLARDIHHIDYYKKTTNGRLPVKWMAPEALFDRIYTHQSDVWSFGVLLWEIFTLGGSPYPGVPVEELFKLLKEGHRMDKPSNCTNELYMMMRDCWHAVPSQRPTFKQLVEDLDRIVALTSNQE
Briefly: SPR binding to Asp623Ala mutant of FGFR1 kinase domain. The note with it: data not shown. The source says:
For our studies of the FGFR1 kinase domain, we have used a construct spanning residues Ala458 to Glu765 of human FGFR1 that contains two mutations (Cys488Ala and Cys584Ser) designed to stabilize the enzyme against covalent aggregation. The protein is non-phosphorylated after co-expression with PTP1B and purification from Escherichia coli. An additional mutation of the catalytic aspartate (Asp623Ala) was introduced for NMR studies to increase further the yield of stable isotope-labelled protein. […] In addition, we have confirmed using surface plasmon resonance (SPR) that binding parameters for a close analogue of the canonical FGFR1 inhibitor PD173074 (ref. [23]; henceforth referred to as PDA; Fig. 1a; Supplementary Fig. 1) are unaltered for the Asp623Ala mutant relative to the kinase-active form (data not shown).

The target in a further data set is Asp641 (UniProt position 641, VMKIADFGLAR). Briefly: kinetics (surface plasmon resonance). Conditions: 298 K; PBS (pH 7.0-7.4) or 100 mM NaCl with 50 mM Bis-Tris (pH 5.5-6.5); PBS (pH 7.0-7.4) or 50 mM Bis-Tris (pH 5.5-6.5) with 100 mM NaCl. Both contain 50 µM EDTA, 0.05% Surfactant P20 and 1% DMSO.; Non-phosphorylated, initially ligand-free FGFR1 kinase domain immobilised on an NTA chip. The rate reports on the DFG-in to DFG-out transition required for ponatinib binding.

T1 sequence (P11362 458-765 C488A/C584S): as the sequence (P11362 458-765 C488A/C584S/D623A) above, with A166D counted along it

For `CCN(CC)CCCCNc1ncc2cc(-c3cc(OC)cc(OC)c3)c(NC(=O)NC(C)(C)C)nc2n1` [PD173074], in the data set with N550K mutation in FGFR2, the “effect of FGFR2 N550K mutation on inhibitor potency” value was “confers resistance”.
As to `CCN(CC)CCCNc1ncc2cc(-c3cc(OC)cc(OC)c3)c(NC(=O)NC(C)(C)C)nc2n1` [PDA], the “KD, fold weaker in the presence of 1.2 M GdmCl” value at FGFR1 kinase domain [1] (1.2 M GdmCl vs absence of GdmCl) is given as roughly 2 fold. The “association rate constant as a function of pH” value on FGFR1 kinase domain [1] (SPR 298 K, pH decreased from 7.4 to 5.5) is “no dependence on pH”. Besides, the kon on FGFR1 kinase domain [1] (SPR, 1.2 M GdmCl in PBS running buffer, read-out: association rate constant kon in the presence of 1.2 M GdmCl) is 680000 M⁻¹ s⁻¹. For the same compound, the koff on FGFR1 kinase domain [1] (SPR, 1.2 M GdmCl in PBS running buffer, read-out: dissociation rate constant koff in the presence of 1.2 M GdmCl) came out at 0.0018 s⁻¹. Moreover, the Kd at FGFR1 kinase domain [1] (SPR, 298 K, pH 7.4, read-out: KD (koff/kon)) is 5.7 nM. At FGFR1 kinase domain [1] (SPR, 298 K, pH 7.4, read-out: association rate constant kon), the kon was 1.6e+06 M⁻¹ s⁻¹. The koff at FGFR1 kinase domain [1] (SPR, 298 K, pH 7.4, read-out: dissociation rate constant koff) is 0.0092 s⁻¹. In addition, the “heat capacity change ΔCp” value at FGFR1 kinase domain [2] is -359 cal mol^−1 K^−1. This compound also returned a Kd on FGFR1 kinase domain [2] (ITC, 298 K) of 8.8 nM. Further, at FGFR1 kinase domain [2] (ITC), the “-TΔS (ITC)” value came to 1.1 ± 0.0 kcal/mol; the “N (ITC stoichiometry)” value is listed as 0.8±0.02; the “ΔG (ITC)” value is -11.0 ± 0.0 kcal/mol; the “ΔH (ITC)” value was -12.1 kcal/mol and -12.1 ± 1.8 kcal/mol. Besides, on FGFR1 kinase domain [3], the “ΔG0 van't Hoff” value is -11.1 ± 0.02 kcal/mol; the “ΔH0 van't Hoff” value was -11.5 kcal/mol and -11.5 ± 0.8 kcal/mol; the “−TΔS0 van't Hoff” value came to 0.4 ± 0.8 kcal/mol. At FGFR1 kinase domain [4] (association phase), the “ΔG# ass (transition state free-energy barrier, association)” value is 8.7 ± 1.8 kcal/mol and 8.7 kcal/mol; the “ΔH# ass (transition state enthalpy, association)” value was 16.6 ± 1.3 kcal/mol and 16.6 kcal/mol; the “−TΔS# ass (transition state entropy, association)” value was -7.9 ± 1.3 kcal/mol and -7.9 kcal/mol. Besides, on FGFR1 kinase domain [4] (dissociation phase), the “-TΔS# diss” value is -5.3 ± 1.8 kcal/mol, the “ΔG# diss” value is 19.5 ± 2.6 kcal/mol and the “ΔH# diss” value was found to be 24.8 ± 1.8 kcal/mol. The “binding parameters for Asp623Ala mutant relative to the kinase-active form” value at FGFR1 Asp623Ala mutant is given as “unaltered”.
As for `Cc1ccc(C(=O)Nc2ccc(CN3CCN(C)CC3)c(C(F)(F)F)c2)cc1C#Cc1cnc2cccnn12` [ponatinib], the “effect of FGFR2 N550K mutation on inhibitor potency” value in the data set with N550K mutation in FGFR2 is on record as “enhanced inhibitory potency against this mutant relative to wild-type”.
The compound “Fibroblast growth factor receptor 1 (FGFR1) kinase domain (Homo sapiens; C488A;C584S)” returned a pKa in the data set with Asp641 of 6.25.
As for SU5402, the “heat capacity change ΔCp” value at FGFR1 kinase domain [2] is reported as -172 cal mol^−1 K^−1. Also, at FGFR1 kinase domain [2] (ITC), the “-TΔS (ITC)” value was found to be 2.7 ± 0.2 kcal/mol; the “N (ITC stoichiometry)” value is 1.0±0.04; the “ΔG (ITC)” value was -9.7 ± 0.1 kcal/mol; the “ΔH (ITC)” value is -12.4 kcal/mol and -12.4 ± 0.2 kcal/mol. Also, on FGFR1 kinase domain [3], the “ΔG0 van't Hoff” value was -9.5 ± 0.02 kcal/mol; the “ΔH0 van't Hoff” value was -14.2 kcal/mol and -14.2 ± 0.8 kcal/mol; the “−TΔS0 van't Hoff” value is 4.8 ± 0.8 kcal/mol.
